Tests used:
[1] = system: LTB4-induced degranulation of purified human neutrophils; assay: LTB4-induced neutrophil degranulation (myeloperoxidase release); format: cell-based; conditions: LTB4-induced MPO release; for inhibition at 30 µM: read-out: LTB-Induced Neutrophil Degranulation % Inhibition at 30 uM; for IC50: concentration-response, read-out: LTB-Induced Neutrophil Degranulation I50
Description: (§1) Each compound was tested in two in vitro models of LTB4 induced cell function. The cellular responses measured are presumed to be mediated via specific interactions of LTB4 with cellular receptors.
(§2) The cellular responses studied include 1) LTB4 -induced degranulation (release of myeloperoxidase) from purified human neutrophils and 2) LTB4 -induced adhesion of human neutrophils to latex beads. Each putative antagonist was tested at 30 uM for its effect on each response. Selected compounds were tested in a concentration-response fashion.
(1) Neutrophil Degranulation Assay
Neutrophils are isolated from human venous blood via a twostep sedimentation procedure, and contaminating erythrocytes are selectively lysed. The neutrophils were preincubated in 0.25% Hanks buffer containing bovine serum albumin (BSA) with 5 ug Cytochalasin B/ml cells for 5 minutes at 37° C. Neutrophils (4×10^6) are added to stimuli (LTB4 or buffer control) in the presence and absence of antagonist in Krebs-Ringer buffer to a final volume of 1.0 ml, and incubated at 37° C. for appropriate periods of time. At the end of the reaction period the neutrophils are pelleted by centrifugation at 3000 rpm for 5 minutes at 4° C.
Aliquots (0.2 ml) of the supernatants are added to polystyrene tubes to which are added the following: 0.6 ml )>25% Hanks BSA, 0.5 ml MPO buffer (0.2 M NaPO4, pH 6.2) and to start the color reaction 0.2 ml of a 1:1 v/v 0.05% H2 O2 :1.25 mg/ml dimethoxybenzidine (DMB). The reaction is allowed to run at room temperature for 15 minutes and is stopped by the addition of 0.05 ml 2% sodium azide. The developed color is quantitated in a spectrophotometer at 460 nm. The amount of myeloperoxidase (MPO) released by LTB4 stimulation can thus be determined. In order to determine the total amount of MPO in the cells an unstimulated control tube of neutrophils is lysed using 0.01 ml 10% Triton TX and the total MPO is determined via the color reaction and spectrophotometer reading. The activity of a given concentration of LTB4 is expressed as the percentage of the total MPO released. The activity of antagonists at a given concentration is expressed as a percentage of inhibiton of LTB4 -induced MPO release at a single concentration cf LTB4.

[2] = system: LTB4-induced adhesion of human neutrophils to latex beads; assay: LTB4-induced neutrophil latex bead adhesion; format: cell-based; conditions: albumin-coated latex beads, read-out: LTB-Induced Neutrophil Bead Adhesion % Inhibition at 30 uM
Description: as §1, §2
(2) Neutrophil Latex Bead Adhesion
Latex bead suspension (0.6 ml; 10% aqueous suspension; particle diameter=1u) is pipeted into a 1.5 ml eppendorf centrifuge tube. The beads are pelleted by centrifugation, the supernatant is discarded and the beads are washed 2 times with 1 ml 0.9% saline. To the pelleted beads is added 0.5 ml saline and 0.5 ml 20 mg/ml human serum albumin (HSA) in Krebs-Ringer buffer. Allow bead-albumin mixture to sit at room temperature for 10 minutes, centrifuge for 1 minute and remove the supernatant, and wash albumin-coated beads 3 times with saline. Resuspend the beads in 1 ml of Krebs-Ringer.
Human neutrophils are prepared as described for the neutrophil degranulation assay and 10^7 cells are added to 0.3 ml of Krebs-Ringerin the presence and absence of LTB4 and putative antagonist and are incubated at 37° for an appropriate period of time.
The albumin-coated beads are then added in 0.05 ml to give a final bead concentration of 1% v/v, resulting in a bead to neutrophil ratio of 100:1. The tubes containing cells and beads are then placed in an agitating water bath at 37° C. and 120 oscillation per minute for 10 minutes. The reaction is stopped by adding an equal volume of 2.5% gluteraldehyde in saline. The reaction tubes are allowed to stand at room temperature for 30 minutes. The cells are then washed 3 times (with centrifugation at 1000 rpm for 5 minutes) with saline to remove the unadhered latex beads and resuspended in 0.3 ml saline.
Wet mounts are prepared and adherence is examined by light microscopy at 400x. Adherence is scored by counting five randomly placed fields of at least 50 neutrophils per field. […] Activity of the antagonists is expressed as the percent inhibition of LTB4 induced adherence.

IC50 [1] [µM]	Compound	inhibition at 30 µM [1] [%]	inhibition at 30 µM [2] [%]
	O=C(O)CC(O)c1ccc2oc3ccc(C(O)Cc4ccccc4)cc3c2c1 (centres unmarked) [Compound 11, 3-[2-[8-(1-Hydroxy)-2-phenylethyl]dibenzofuranyl]-3-hydroxypropionic Acid]	35	7
13	CN(C)C(=O)CC(O)c1ccc2oc3ccc(C(O)Cc4ccccc4)cc3c2c1 (centres unmarked) [Compound 12, N,N-Dimethyl-3-[2-[8-(1-hydroxy)-2-phenylethyl]dibenzofuranyl]-3-hydroxypropanamide]	100	14
	CN(C)C(=O)CCC(O)c1ccc2oc3ccc(C(O)Cc4ccccc4)cc3c2c1 (centres unmarked) [Compound 22, N,N-Dimethyl-4-[2-[8-(1-hydroxy)-2-phenylethyl]dibenzofuran-2-yl]-4-hydroxybutanamide]	100	1
	O=C(CCC(O)c1ccc2oc3ccc(C(O)Cc4ccccc4)cc3c2c1)N1CCCC1 (centres unmarked) [Compound 23, N-[4-[2-[8-(1-Hydroxy)-2-phenylethyl]dibenzofuranyl]-4-hydroxybutanoyl]pyrrolidine]	62	10
	O=C(O)CCCC(O)c1ccc2oc3ccc(C(O)Cc4ccccc4)cc3c2c1 (centres unmarked) [Compound 40, Sodium 5-[2-[8-(1-Hydroxy)-2-phenylethyl]dibenzofuranyl]-5-hydroxypentanoate]	38	5
9	CN(C)C(=O)CCCC(O)c1ccc2oc3ccc(C(O)Cc4ccccc4)cc3c2c1 (centres unmarked) [Compound 41, N,N-Dimethyl-5-[2-[8-(1-hydroxy)-2-phenylethyl]dibenzofuranyl}-5-hydroxypentanamide]	57	2
19	O=C(CCCC(O)c1ccc2oc3ccc(C(O)Cc4ccccc4)cc3c2c1)N1CCCC1 (centres unmarked) [Compound 42, N-[5-[2-[8-(1-Hydroxy)-2-phenylethyl]dibenzofuranyl]-5 hydroxypentanoyl]pyrrolidine]	100	12
